Source: the supplement of paper PMC10307832

Assays:
Test in all cases: relative viability (nuclei count vs DMSO), 5 days (fraction); higher = more cells survive
[1] = compound: C/C(=N\NC(=S)N1CCC1)/C2=CC=CC=N2 + N=C(N)NC(=N)NCCc1ccccc1 [Phenformin] (partner 250 µM)
How it was run: (§1)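 Relative viability was taken as the ratio of nuclei in treated wells to nuclei in vehicle wells. Lung cancer cell lines in 1536-well plates received compounds by pin tool one day after seeding, either one drug alone or a fixed anchor-drug dose plus five library-drug doses (not always all listed) in √10 steps. Nuclei were counted on 4× images after 5 days of treatment, and values are medians of duplicate plates.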

[2] = compound: C/C(=N\NC(=S)N1CCC1)/C2=CC=CC=N2 + Nc1nc2[nH]cc(CCc3ccc(C(=O)N[C@@H](CCC(=O)O)C(=O)O)cc3)c2c(=O)[nH]1 [Pemetrexed] (partner 0.2 µM)
How it was run: as §1

[3] = compound: C/C(=N\NC(=S)N1CCC1)/C2=CC=CC=N2 + CC(=O)Nc1cccc(-n2c(=O)n(C3CC3)c(=O)c3c(Nc4ccc(I)cc4F)n(C)c(=O)c(C)c32)c1 [Trametinib] (partner 0.02 µM)
How it was run: as §1

[4] = compound: C/C(=N\NC(=S)N1CCC1)/C2=CC=CC=N2 + CC1(C)CCC(c2ccc(Cl)cc2)=C(CN2CCN(c3ccc(C(=O)NS(=O)(=O)c4ccc(N[C@H](CCN5CCOCC5)CSc5ccccc5)c(S(=O)(=O)C(F)(F)F)c4)cc3)CC2)C1 [Navitoclax] (partner 0.5 µM)
How it was run: as §1

Row | Cell Line | relative viability ([1]; first compound 0.05 µM) | relative viability ([1]; first compound 0.1581 µM) | relative viability ([1]; first compound 0.5 µM) | relative viability ([1]; first compound 1.581 µM) | relative viability ([1]; first compound 5 µM) | relative viability ([2]; first compound 0.05 µM) | relative viability ([2]; first compound 0.1581 µM) | relative viability ([2]; first compound 0.5 µM) | relative viability ([2]; first compound 1.581 µM) | relative viability ([2]; first compound 5 µM) | relative viability ([3]; first compound 0.05 µM) | relative viability ([3]; first compound 0.1581 µM) | relative viability ([3]; first compound 0.5 µM) | relative viability ([3]; first compound 1.581 µM) | relative viability ([3]; first compound 5 µM) | relative viability ([4]; first compound 0.05 µM) | relative viability ([4]; first compound 0.1581 µM) | relative viability ([4]; first compound 0.5 µM) | relative viability ([4]; first compound 1.581 µM) | relative viability ([4]; first compound 5 µM)
1 | HCC-78 | 0.279 | 0.367 | 0.314 | 0.247 | 0.213 | 0.96 | 0.872 | 0.854 | 0.84 | 0.863 | 0.5 | 0.377 | 0.359 | 0.275 | 0.23 | 0.492 | 0.245 | 0.218 | 0.189 | 0.12
2 | NCI-H2405 | 0.21 | 0.235 | 0.24 | 0.199 | 0.262 | 0.243 | 0.238 | 0.251 | 0.215 | 0.215 | 0.236 | 0.278 | 0.24 | 0.239 | 0.3 | 0.0935 | 0.0799 | 0.114 | 0.256 | 0.246
3 | SK-LU-1 | 0.124 | 0.152 | 0.174 | 0.104 | 0.123 | 0.293 | 0.28 | 0.282 | 0.187 | 0.246 | 0.294 | 0.278 | 0.254 | 0.191 | 0.258 | 0.183 | 0.167 | 0.148 | 0.124 | 0.112
4 | EMC-BAC-2 | 0.156 | 0.233 | 0.214 | 0.211 | 0.212 | 0.26 | 0.255 | 0.275 | 0.228 | 0.259 | 0.293 | 0.282 | 0.246 | 0.2 | 0.231 | 0.25 | 0.645 | 0.162 | 0.21 | 0.168
5 | NCI-H1650 | 0.122 | 0.16 | 0.194 | 0.14 | 0.18 | 0.308 | 0.186 | 0.202 | 0.221 | 0.203 | 0.131 | 0.176 | 0.143 | 0.177 | 0.146 | 0.13 | 0.173 | 0.142 | 0.181 | 0.214
6 | NCI-H596 | 0.301 | 0.391 | 0.324 | 0.239 | 0.259 | 0.373 | 0.302 | 0.339 | 0.243 | 0.292 | 0.613 | 0.296 | 0.293 | 0.201 | 0.239 | 0.66 | 0.38 | 0.226 | 0.274 | 0.161
7 | LCLC-97TM1 | 0.128 | 0.189 | 0.109 | 0.166 | 0.139 | 0.0782 | 0.0748 | 0.0673 | 0.068 | 0.0595 | 0.0885 | 0.152 | 0.0765 | 0.0664 | 0.0773 | 0.124 | 0.421 | 0.0929 | 0.115 | 0.104
8 | H3255 | 0.318 | 0.333 | 0.317 | 0.301 | 0.346 | 0.359 | 0.349 | 0.355 | 0.268 | 0.255 | 0.29 | 0.304 | 0.258 | 0.295 | 0.325 | 0.103 | 0.123 | 0.101 | 0.094 | 0.148
